Data set [1] deals with T1, mouse ATX (Mus musculus, UniProt Q9R1E6).
T1 construct: purchased Sino Biological
The experiment in a line: Amplex Red Lyso-phospholipase D assay, mouse ATX. The data set is classed as biochemical. How it is done: All compounds proposed were assessed for their ATX inhibitory activity in vitro using the Amplex Red assay. The Amplex Red Lyso-phospholipase D assay is a fluorometry-based assay providing a sensitive method for measuring Lyso-phospholipase D (ATX) activity in vitro. In this enzyme-coupled assay, ATX activity is monitored indirectly using 10-acetyl-3,7-dihydrophenoxazine (Amplex Red reagent), a sensitive fluorogenic probe for H2O2. ATX initially cleaves the Lysophosphatidylcholine (LPC) substrate to yield choline and Lysophosphatidic acid (LPA), while choline gets subsequently oxidized by choline oxidase to betaine and H2O2. Lastly, H2O2, in the presence of horseradish peroxidase (HRP), reacts with Amplex Red reagent in a 1:1 stoichiometry to generate the highly fluorescent product resorufin.
The inhibition assay was performed as previously described with some modifications in order to accommodate the newly-discovered lag phase in ATX kinetics. To this end, and in order to provide adequate time to the hydrolysis of LPC by ATX, we added a 30min incubation period between ATX, inhibitors and LPC. Briefly, 2 μL of different concentrations of inhibitors diluted in DMSO (Sigma-Aldrich, St. Louis, MO, USA) were incubated with 50 µL of ATX 8 nM (human or mouse ATX from Sino Biological), and 48 µL reaction buffer (50 mM Tris-Cl pH 8.0 from Thermo Fisher Scientific, Waltham, MA, USA and 5 mM CaCl2 from Honeywell-Fluka, Charlotte, NC, USA) in a black 96-well microplate for 15 min at 37 °C. Thence, another 50 µL of reaction buffer with 200 μM LPC substrate 16:0 (Avanti Polar Lipids Inc, Alabaster, AL, USA) (final concentrations of LPC and ATX are 50 µM and 2 nM, respectively) was added to the reaction mixture and incubated for 30 min at 37 °C in order for ATX to convert LPC to LPA and choline. Finally, 50 µL of working solution containing 200 μM Amplex Red (Invitrogen, Carlsbad, CA, USA), 4 U/mL HRP (Sigma-Aldrich, St. Louis, MO, USA), 0.4 U/mL choline oxidase (Sigma-Aldrich, St. Louis, MO, USA) in 50 mM Tris-HCl pH 8.0 and 5 mM CaCl2 was added to measure the produced choline. The reaction was monitored at 37 °C in a fluorescence plate reader using excitation at 530 nm and reading at 590 nm, every 5 min for 30 min. The velocity of the reaction and the remaining activity of ATX were calculated at the linear phase of the reaction and dose-response inhibition graphs were plotted with GraphPad Software (GraphPad Software, San Diego, CA, USA). […] In order to evaluate a possible effect of the compounds on the second (choline oxidase) and third (HRP) enzymes of the Amplex Red assay, we also performed the assay in the absence of ATX but in the presence of the compounds. Instead of ATX, we added choline chloride at a final concentration of 2 µM so as the second and third steps of the assay could proceed normally.

For data set [2], the target named is phosphodiesterase (PDE). Kind of data set: Phosphodiesterase (PDE) colorimetric assay, 3',5'-cAMP and 3',5'-cGMP as substrates. It counts as biochemical. Conditions: for activity against PDE: in words. From the text: This colorimetric assay kit uses 3′,5′-cAMP and 3′,5′-cGMP as substrates, and it is useful for the screening of inhibitors of nucleotide phosphodiesterase activity.

In data set [3] the target is T1, mouse ATX. The experiment in a line: Mode of inhibition, modified Amplex assay, Lineweaver-Burk plots. Conditions: various LPC and inhibitor concentrations. The data set is classed as biochemical. How it is done:
Lastly, to get insight into the mode of inhibition of the new ATX inhibitors developed in the present study, the Lineweaver–Burk plots were performed.
To determine the mode of inhibition of ATX by each inhibitor, a modified Amplex assay was employed. […] Mouse ATX from Sino Biological was used in all mode of inhibition assays. Thereafter, the velocity (V) of the reaction was calculated and the reciprocal of velocity (1/V) was plotted against the reciprocal of substrate concentration (1/S) in Lineweaver–Burk graphs using GraphPad Software (GraphPad Software, San Diego, CA, USA).

For data set [4], the target named is T2, ATX (Homo sapiens, UniProt Q13822). The experiment in a line: IC50 Eleanna (Table S2, method not described). It counts as biochemical.
Data set [5] concerns the target T2, ATX. The experiment in a line: Amplex Red Lyso-phospholipase D assay, human ATX. It counts as biochemical. More on the design: purchased Sino Biological. The following applies: for inhibition at 30 µM: read-out: %inhibition at 30uM.
Data set [6] in a line: Solubility (Table S1). The following applies: YES/NO.
Data set [7] has as its target T2, ATX. The following applies: cited from earlier work.
Data set [8] deals with T2, ATX. The following applies: LPC assay; cited from earlier work.
Setting [9] is: recombinant mouse ATX 2 nM, LPC 16:0 substrate, Amplex Red, read-out: IC50 mATX.
[10] abbreviates: Table S2, read-out: IC50 Eleanna.
The mark [11] stands for this setting: recombinant human ATX 2 nM, LPC 16:0 substrate, Amplex Red, read-out: IC50 hATX.
The mark [12] stands for this setting: in vitro IC50 (mATX 2nM), Table S2, mATX 2nM.
[13] abbreviates: in vitro IC50 (hATX 1nM), Table S2, hATX 1nM.
Setting [14] is: in vitro IC50 (Sino hATX 2nM), Table S2, Sino hATX 2nM.

Usually IC50 stands for the concentration needed to halve the response being measured. What is called inhibition is the percentage by which the read-out fell short of the control.

Like-named read-outs stand apart in the source and are kept apart here.

With `COc1cccc(NC(=S)N2CCn3cccc3C2c2ccc(OC)c(OC)c2)c1` (stereo not drawn) [KM-26, 1-(3,4-dimethoxyphenyl)-N-(3-methoxyphenyl)-3,4-dihydro-1H-pyrrolo[1,2-a]pyrazine-2-carbothioamide], the IC50 in data set [1] (setting [9]) came out at 7.4 µM; in data set [2], 2.8 µM; in data set [4] (setting [10]), 0.8 µM; in data set [5] (setting [11]) it was 5.6 µM. Moreover, the “activity against PDE” value in data set [2] was “outstanding activity”. Besides, the “Mode of Inhibition” value in data set [3] was “competitive”. Besides, the inhibition at 30 µM in data set [5] (Table S2, at 30uM) is 83.3%.
Regarding `CCOC(=O)c1c(CN2CCCC2)n(-c2ccccc2)c2cc(Br)c(OC)cc12` [KM-3, ethyl 6-bromo-5-methoxy-1-phenyl-2-(pyrrolidin-1-ylmethyl)indole-3-carboxylate], the IC50 came out at 57 µM in data set [1] (setting [12]) and 54 µM in data set [5] (setting [13]). Moreover, in data set [5] (Table S2, at 30uM), the inhibition at 30 µM is 17%.
Take `O=C(Nc1c2c(nn1-c1ccc([N+](=O)[O-])cc1)CSC2)c1cccc2ccccc12` [SC-49, N-[2-(4-nitrophenyl)-4,6-dihydrothieno[3,4-c]pyrazol-3-yl]naphthalene-1-carboxamide]: the IC50 in data set [1] was 9.7 µM; in data set [4], 0.2 µM; in data set [5] (IC50 hATX, recombinant human ATX 2 nM, LPC 16:0 substrate, Amplex Red), 10.2 µM; in data set [5] (setting [14]) it was 10.2 µM; in data set [5] (setting [13]), 9 µM. In addition, the “activity against PDE” value in data set [2] is listed as “outstanding activity”. Besides, the inhibition at 30 µM in data set [5] stood at 65.8%.
For `Cc1cccc(C)c1NC(=O)CSc1nc2ccccc2c(=O)n1CCc1cccs1` [KM-28, N-(2,6-dimethylphenyl)-2-[4-oxo-3-(2-thiophen-2-ylethyl)quinazolin-2-yl]sulfanylacetamide], the half-maximal inhibitory concentration (IC50) in data set [1] (setting [9]) turned out to be 3 µM; in data set [2], 0.9 µM; in data set [4] (setting [10]), 2 µM; in data set [5] (setting [14]) it was 1.85 µM; in data set [5] (setting [11]), 1.8 µM. Besides, the “activity against PDE” value in data set [2] is “outstanding activity”. For the same molecule, the inhibition at 30 µM in data set [5] (Table S2, at 30uM) amounted to 84.2%.
Consider `O=C1Nc2ccccc2/C1=C/c1cc2ccccc2n1S(=O)(=O)c1ccccc1` [SCR01013, (3Z)-3-[[1-(Benzenesulfonyl)indol-2-yl]methylidene]-1H-indol-2-one], for which the concentration for half-maximal inhibition (IC50) in data set [1] (setting [9]) was determined as 67 µM; in data set [4] (setting [10]), 0.6 µM; in data set [5] (setting [13]), 43 µM; in data set [5] (setting [11]), 79 µM. In addition, the Solubility result in data set [6] is reported as “YES”. Moreover, the inhibition at 30 µM in data set [5] (Table S2, at 30uM) was 13.2%.
For the molecule `CCOC(=O)C1CCN(C(=O)Cc2c(Sc3ccc(Cl)cc3)[nH]c3ccccc23)CC1` [KM-24, ethyl 1-[2-[2-(4-chlorophenyl)sulfanyl-1H-indol-3-yl]acetyl]piperidine-4-carboxylate], the IC50 in data set [1] (setting [9]) stood at 6.5 µM; in data set [4] (setting [10]) it was 0.5 µM; in data set [5] (setting [11]) it was 14.6 µM. Besides, the “Mode of Inhibition” value in data set [3] is given as “mixed”. Besides, the inhibition at 30 µM in data set [5] (Table S2, at 30uM) is 69.8%.
Turning to `N[C@@H](Cc1c[nH]cn1)C(=O)O` [L-Histidine], the “IC50 (ATX inhibition)” value in data set [7] is reported as “millimolar range”.
`O=C(CCN1CCN(C(=O)OCc2cc(Cl)cc(Cl)c2)CC1)c1ccc2[nH]c(=O)oc2c1` [PF-8380, 3,5-Dichlorobenzyl 4-(3-oxo-3-(2-oxo-2,3-dihydrobenzo[d]oxazol-6-yl)propyl)piperazine-1-carboxylate, reference compound]: the IC50 in data set [2] amounted to 0.0011 µM. The “Mode of Inhibition” value in data set [3] is given as “competitive”. The Solubility result in data set [6] was “YES”.
Take `CCCCCCCCCCCCCC(=O)Nc1ccc(CP(=O)(O)O)cc1` [Compound S32826]: the 50% inhibitory concentration (IC50) in data set [8] was 0.0056 µM.
In the case of `CCOC(=O)c1sc(SCc2ccccc2)c2c1CC(c1ccc(C)cc1)CC2O` (stereo not drawn) [KM03601, ethyl 3-benzylsulfanyl-4-hydroxy-6-(4-methylphenyl)-4,5,6,7-tetrahydro-2-benzothiophene-1-carboxylate], the IC50 in data set [1] (setting [12]) is 15 µM; in data set [1] (setting [9]), 14.9 µM; in data set [4] (setting [10]) it was 0.5 µM; in data set [5] (setting [14]), 30.6 µM; in data set [5] (setting [13]) it was 10 µM; in data set [5] (setting [11]) it was 30.5 µM. Moreover, the “Mode of Inhibition” value in data set [3] is given as “competitive”. Further, the Solubility result in data set [6] is “YES”. In addition, in data set [5] (Table S2, at 30uM), the inhibition at 30 µM was 43.6%.
Take `COc1ccccc1NC(=S)N1CCn2cccc2C1c1ccc(OC)c(OC)c1` (stereo not drawn) [KM-41, 1-(3,4-dimethoxyphenyl)-N-(2-methoxyphenyl)-3,4-dihydro-1H-pyrrolo[1,2-a]pyrazine-2-carbothioamide]: the IC50 in data set [1] (setting [12]) amounted to 60 µM; in data set [4] (setting [10]) it was 0.3 µM; in data set [5] (setting [13]), 38 µM. For the same molecule, the inhibition at 30 µM in data set [5] (Table S2, at 30uM) turned out to be 33.5%.
Consider `Cc1[nH]c2ccccc2c1C1=CCN(S(=O)(=O)c2cccc3nsnc23)CC1` [SC-41, 4-{[4-(2-Methyl-1H-indol-3-yl)-3,6-dihydropyridin-1(2H)-yl]sulfonyl}-2,1,3-benzothiadiazole], for which the IC50 in data set [1] (setting [9]) was 4 µM; in data set [4] (setting [10]), 2.3 µM; in data set [5] (setting [11]) it was 13.6 µM. Further, in data set [3], the “Mode of Inhibition” value is listed as “uncompetitive”. Also, the inhibition at 30 µM in data set [5] (Table S2, at 30uM) is 70.6%.
For `CCOC(=O)c1c(CN2CCCCC2)n(Cc2ccccc2)c2cc(Br)c(O)cc12` [KM-14, ethyl 1-benzyl-6-bromo-5-hydroxy-2-(piperidin-1-ylmethyl)-1H-indole-3-carboxylate], the IC50 in data set [1] turned out to be 5.9 µM; in data set [4], 0.8 µM; in data set [5], 13.8 µM. For the same molecule, the “Mode of Inhibition” value in data set [3] is reported as “mixed”. For the same molecule, the inhibition at 30 µM in data set [5] came out at 69%.

The values are drawn from PMC7582705, “Structure-Based Discovery of Novel Chemical Classes of Autotaxin Inhibitors” (International Journal of Molecular Sciences, 2020).
